Holding throughout (experiment): stopped-flow CO2 hydrase assay
Holding throughout (assay type): biochemical

For one experiment, the target named is T1, hCA II (Homo sapiens, UniProt P00918).
T1 construct: gene CA2; recombinant, obtained in-house; cytosolic isoform
The text has this: stopped-flow CO2 hydrase assay on hCA II

For another experiment, the target named is T2, hCA XII (Homo sapiens, UniProt O43570).
T2 construct: gene CA12; recombinant, obtained in-house
The source says:
stopped-flow CO2 hydrase assay on hCA XII

The target of another experiment is T3, hCA IX (Homo sapiens, UniProt Q16790).
T3 construct: gene CA9; recombinant, obtained in-house
The source says:
stopped-flow CO2 hydrase assay on hCA IX

For a further experiment, the target named is T4, hCA I (Homo sapiens, UniProt P00915).
T4 construct: gene CA1; recombinant, obtained in-house; cytosolic isoform
The text has this: stopped-flow CO2 hydrase assay on hCA I

Where two headings read alike, the source gives them in different places. Some results are limits rather than exact numbers.

We go through seven compounds from paper PMC7006686, “A class of carbonic anhydrase IX/XII – selective carboxylate inhibitors” (Journal of Enzyme Inhibition and Medicinal Chemistry, 2020).

T2 sequence (O43570 25-354): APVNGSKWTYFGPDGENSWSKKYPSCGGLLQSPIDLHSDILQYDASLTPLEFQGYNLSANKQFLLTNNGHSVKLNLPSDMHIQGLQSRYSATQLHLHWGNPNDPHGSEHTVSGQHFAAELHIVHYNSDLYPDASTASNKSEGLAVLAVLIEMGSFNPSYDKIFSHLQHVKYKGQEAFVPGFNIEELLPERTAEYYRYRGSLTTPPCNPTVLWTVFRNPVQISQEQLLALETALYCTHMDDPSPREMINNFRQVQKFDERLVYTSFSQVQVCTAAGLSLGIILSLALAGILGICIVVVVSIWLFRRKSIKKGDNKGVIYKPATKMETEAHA
T4 sequence (P00915 2-261): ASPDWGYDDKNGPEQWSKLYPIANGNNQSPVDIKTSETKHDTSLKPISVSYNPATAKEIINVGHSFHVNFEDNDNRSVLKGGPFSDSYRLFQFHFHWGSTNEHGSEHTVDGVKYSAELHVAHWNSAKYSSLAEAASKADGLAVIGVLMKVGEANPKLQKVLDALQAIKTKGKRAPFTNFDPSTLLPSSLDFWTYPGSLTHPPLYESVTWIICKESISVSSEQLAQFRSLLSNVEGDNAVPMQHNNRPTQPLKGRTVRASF

Turning to `O=C(O)CN1C(=O)SC(=Cc2ccccc2)C1=O` [3a, 2-(5-benzylidene-2,4-dioxothiazolidin-3-yl)acetic acid], the Ki on hCA II is > 100 µM; on hCA XII it was 0.58 µM; on hCA IX (read-out: hCA IX), 22.2 µM; at hCA I it was > 100 µM.

Take `Cc1ccc(C=C2SC(=O)N(CC(=O)O)C2=O)cc1` [3b]: the Ki at hCA II was > 100 µM; at hCA XII, 0.93 µM; on hCA IX (read-out: hCA I) it was > 100 µM; at hCA I, > 100 µM.

`O=C(O)CN1C(=O)SC(=Cc2ccc(Cl)cc2)C1=O` [3c, 2-(5-(4-chlorobenzylidene)-2,4-dioxothiazolidin-3-yl)acetic acid]: the Ki at hCA II is > 100 µM; at hCA XII it was 0.66 µM; at hCA IX (read-out: hCA IX) it was 3.1 µM; at hCA I, > 100 µM.

As for `O=C(O)CN1C(=O)SC(=Cc2ccccc2Cl)C1=O` [3d, 2-(5-(2-chlorobenzylidene)-2,4-dioxothiazolidin-3-yl)acetic acid], the Ki on hCA II was > 100 µM; on hCA XII it was 0.47 µM; on hCA IX (read-out: hCA IX) it was 24.1 µM; at hCA I it was > 100 µM.

Turning to `O=C(O)CN1C(=O)SC(=Cc2ccc(Br)cc2)C1=O` [3e, 2-(5-(4-bromobenzylidene)-2,4-dioxothiazolidin-3-yl)acetic acid], the Ki at hCA II was > 100 µM; at hCA XII, 0.91 µM; on hCA IX (read-out: hCA IX), 33.3 µM; at hCA I, > 100 µM.

Turning to `COc1ccc(C=C2SC(=O)N(CC(=O)O)C2=O)cc1` [3f, 2-(5-(4-methoxybenzylidene)-2,4-dioxothiazolidin-3-yl) acetic acid], the Ki at hCA II is > 100 µM; on hCA XII, 0.85 µM; at hCA IX (read-out: hCA IX), 3.2 µM; at hCA I, > 100 µM.

For the compound `COc1cccc(C=C2SC(=O)N(CC(=O)O)C2=O)c1` [3g, 2-(5-(3-methoxybenzylidene)-2,4-dioxothiazolidin-3-yl) acetic acid], the Ki at hCA II was > 100 µM; on hCA XII, 0.3 µM; at hCA IX (read-out: hCA I) it was > 100 µM; at hCA I, > 100 µM.
